# Test results reported in article PMC5835418 (Journal of pharmaceutical and biomedical analysis, 2018).
# Counter-ions that a name gives are not always drawn.
# Tests used:
# [1] = ex vivo, data not shown
# [2] = Plasma concentrations in mice after rectal enema dosing of TAF or CMX157; format: in vivo
# [3] = data not shown
# [4] = Injection matrix stability; conditions: 72 h at 4°C, compared to the previously run curve; data not shown
# [5] = for number of freeze-thaw cycles for which stable: plasma, -80°C
# [6] = cited from earlier work
# [7] = 72 h
# [8] = following a single 25 mg dose of TAF; ref 24 (Custodio and colleagues); cited from earlier work
# [9] = human, 24 h
# [10] = human, 244 days
compound,measurement,setting,value
"CCCCCCCCCCCCCCCCOCCCOP(=O)(O)CO[C@H](C)Cn1cnc2c(N)ncnc21 [CMX157, hexadecyloxypropyl tenofovir]",time up to which stable in whole blood,[1],≤ 8 h
"CC(C)OC(=O)[C@H](C)N[P@](=O)(CO[C@H](C)Cn1cnc2c(N)ncnc21)Oc1ccccc1 [TAF, tenofovir alafenamide fumarate]",plasma TAF/TFV ratio,"[2]; colonic administration of TAF, mice",< 1
same,time for conversion of TAF into TFV,[2]; mice dosed rectally with TAF,less than 15 minutes
same,plasma samples with detectable systemic TAF,"[2]; mice, rectal TAF",60%
same,stability in mouse plasma as compared to human matrices,[3],less stable
same,injection matrix stability,[4],unstable
same,time up to which stable in whole blood,[1],up to 1 h
same,number of freeze-thaw cycles for which stable,[5],two
"CC(C)OC(=O)OCOP(=O)(CO[C@H](C)Cn1cnc2c(N)ncnc21)OCOC(=O)OC(C)C [TDF, tenofovir disoproxil fumarate]",increase in TFV bioavailability by prodrug administration,[6],25%
"C[C@H](Cn1cnc2c(N)ncnc21)OCP(=O)(O)O [TFV, tenofovir]",injection matrix stability %DIF,[7],−8.44-5.57%
same,Cmax,[8],9.5 ng/mL
same,sample matrix stability %DIF,[9],-14.5-8.45%
same,long term storage stability %DIF,[10],≤ ±10.5%
same,freeze-thaw stability %DIF,[5]; human,-15.2-3.04%
same,number of freeze-thaw cycles for which stable,[5],three
